ChEMBL document CHEMBL1201862, “PubChem BioAssay data set” (2004)
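Assay format: 96-well plates, 48-hour exposure. GI50 is the concentration that inhibits growth by half.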 Calls of active or inactive are those of the source. No stated cut-off is given here; in the data, active = GI50 up to about 1.1 µM and inactive = higher.

What was measured:
Assay in all cases: inhibition of tumour cell growth, NCI panel, 48 h
A549 = tested on: A549
COLO 205 = tested on: COLO 205
EKVX = tested on: EKVX
HCC 2998 = tested on: HCC 2998
HCT-116 = tested on: HCT-116
HT-29 = tested on: HT-29
K562 = tested on: K562
MOLT-4 = tested on: MOLT-4
NCI-H23 = tested on: NCI-H23
NCI-H460 = tested on: NCI-H460
OVCAR-5 = tested on: OVCAR-5
RPMI-8226 = tested on: RPMI-8226
RXF 393 = tested on: RXF 393
SK-OV-3 = tested on: SK-OV-3
SN12C = tested on: SN12C
SW-620 = tested on: SW-620
UACC-62 = tested on: UACC-62
UO-31 = tested on: UO-31
CCRF-CEM = tested on: CCRF-CEM
SF-268 = tested on: SF-268

O=C(O)/C=C/c1c[nH]cn1
GI50 (A549): > 500 µM (inactive)
GI50 (COLO 205): > 500 µM (inactive)
GI50 (EKVX): > 500 µM (inactive)
GI50 (HCC 2998): > 500 µM (inactive)
GI50 (HCT-116): > 500 µM (inactive)
GI50 (HT-29): > 500 µM (inactive)
GI50 (K562): > 500 µM (inactive)
GI50 (MOLT-4): > 500 µM (inactive)
GI50 (NCI-H23): > 500 µM (inactive)
GI50 (NCI-H460): > 500 µM (inactive)
GI50 (OVCAR-5): > 500 µM (inactive)
GI50 (RPMI-8226): > 500 µM (inactive)
GI50 (RXF 393): > 500 µM (inactive)
GI50 (SK-OV-3): > 500 µM (inactive)
GI50 (SN12C): > 500 µM (inactive)
GI50 (SW-620): > 500 µM (inactive)
GI50 (UACC-62): > 500 µM (inactive)
GI50 (UO-31): > 500 µM (inactive)

CCCCCCCCC[C@@H]1C[C@H](O)[C@H](Cc2ccccc2)N1C(=O)OC(C)(C)C
GI50 (A549): 18 µM (inactive)
GI50 (CCRF-CEM): 20.2 µM (inactive)
GI50 (COLO 205): 17 µM (inactive)
GI50 (EKVX): 14.4 µM (inactive)
GI50 (HCC 2998): 14.4 µM (inactive)
GI50 (HCT-116): 17.9 µM (inactive)
GI50 (HT-29): 16.7 µM (inactive)
GI50 (K562): 37.4 µM (inactive)
GI50 (MOLT-4): 36.5 µM (inactive)
GI50 (NCI-H23): 15.6 µM (inactive)
GI50 (OVCAR-5): 15.1 µM (inactive)
GI50 (RPMI-8226): 24.1 µM (inactive)
GI50 (RXF 393): 17.7 µM (inactive)
GI50 (SF-268): 18.7 µM (inactive)
GI50 (SK-OV-3): 19.6 µM (inactive)
GI50 (SN12C): 16.7 µM (inactive)
GI50 (SW-620): 20.1 µM (inactive)
GI50 (UACC-62): 17 µM (inactive)
GI50 (UO-31): 14.3 µM (inactive)

N=C(N)N/N=C\c1c(-c2cccc([N+](=O)[O-])c2)nc2sccn12
GI50 (A549): 18.1 µM (inactive)
GI50 (CCRF-CEM): 2.93 µM (inactive)
GI50 (COLO 205): 2.39 µM (inactive)
GI50 (EKVX): 15.9 µM (inactive)
GI50 (HCC 2998): 2.39 µM (inactive)
GI50 (HCT-116): 7.73 µM (inactive)
GI50 (HT-29): 1.96 µM (inactive)
GI50 (K562): 2.8 µM (inactive)
GI50 (MOLT-4): 1.92 µM (inactive)
GI50 (NCI-H23): 3.94 µM (inactive)
GI50 (NCI-H460): 24.4 µM (inactive)
GI50 (OVCAR-5): 3.91 µM (inactive)
GI50 (RPMI-8226): 17.4 µM (inactive)
GI50 (RXF 393): 2.64 µM (inactive)
GI50 (SF-268): 2.97 µM (inactive)
GI50 (SN12C): 2.21 µM (inactive)
GI50 (SW-620): 2.08 µM (inactive)
GI50 (UACC-62): 29 µM (inactive)
GI50 (UO-31): 18.5 µM (inactive)

COc1ccc(-c2nnc3c4ccccc4sn23)cc1
GI50 (A549): 25.4 µM (inactive)
GI50 (CCRF-CEM): 7.23 µM (inactive)
GI50 (COLO 205): 42.4 µM (inactive)
GI50 (EKVX): 50.7 µM (inactive)
GI50 (HCC 2998): 17 µM (inactive)
GI50 (HCT-116): 30.2 µM (inactive)
GI50 (HT-29): 26.8 µM (inactive)
GI50 (K562): 16.6 µM (inactive)
GI50 (MOLT-4): 15.3 µM (inactive)
GI50 (NCI-H23): 13.3 µM (inactive)
GI50 (NCI-H460): 4.58 µM (inactive)
GI50 (OVCAR-5): > 100 µM (inactive)
GI50 (RPMI-8226): 19.1 µM (inactive)
GI50 (RXF 393): 6.43 µM (inactive)
GI50 (SF-268): 22.5 µM (inactive)
GI50 (SN12C): 17.8 µM (inactive)
GI50 (SW-620): 49 µM (inactive)
GI50 (UACC-62): 35.4 µM (inactive)
GI50 (UO-31): 14.3 µM (inactive)

CC1=C2C(=C[C@H]3[C@]4(C)CCCC(C)(C)[C@H]4CC[C@]34O[C@H]24)OC1=O
GI50 (A549): > 100 µM (inactive)
GI50 (COLO 205): > 100 µM (inactive)
GI50 (EKVX): > 100 µM (inactive)
GI50 (HCC 2998): > 100 µM (inactive)
GI50 (HCT-116): > 100 µM (inactive)
GI50 (HT-29): > 100 µM (inactive)
GI50 (K562): > 100 µM (inactive)
GI50 (MOLT-4): > 100 µM (inactive)
GI50 (NCI-H23): > 100 µM (inactive)
GI50 (NCI-H460): > 100 µM (inactive)
GI50 (OVCAR-5): > 100 µM (inactive)
GI50 (RPMI-8226): > 100 µM (inactive)
GI50 (RXF 393): > 100 µM (inactive)
GI50 (SF-268): > 100 µM (inactive)
GI50 (SK-OV-3): > 100 µM (inactive)
GI50 (SN12C): > 100 µM (inactive)
GI50 (SW-620): > 100 µM (inactive)
GI50 (UACC-62): > 100 µM (inactive)
GI50 (UO-31): > 100 µM (inactive)

CC1(C)CNC(=O)C2(/C=N/C(C)(C)CNC(=O)C3(/C=N/1)CCCO3)CCCO2 (configuration not stated)
GI50 (A549): > 10 µM (inactive)
GI50 (CCRF-CEM): > 10 µM (inactive)
GI50 (COLO 205): > 10 µM (inactive)
GI50 (EKVX): > 10 µM (inactive)
GI50 (HCC 2998): > 10 µM (inactive)
GI50 (HCT-116): > 10 µM (inactive)
GI50 (HT-29): > 10 µM (inactive)
GI50 (K562): > 10 µM (inactive)
GI50 (MOLT-4): > 10 µM (inactive)
GI50 (NCI-H23): > 10 µM (inactive)
GI50 (RPMI-8226): > 10 µM (inactive)
GI50 (RXF 393): > 10 µM (inactive)
GI50 (SF-268): > 10 µM (inactive)
GI50 (SK-OV-3): > 10 µM (inactive)
GI50 (SN12C): > 10 µM (inactive)
GI50 (SW-620): > 10 µM (inactive)
GI50 (UACC-62): > 10 µM (inactive)

CC(C)(C)[Si](C)(C)OCC1CCC(n2cnc3c(N)ncnc32)O1 (configuration not stated)
GI50 (CCRF-CEM): 13.9 µM (inactive)
GI50 (COLO 205): > 100 µM (inactive)
GI50 (HCT-116): 39.2 µM (inactive)
GI50 (HT-29): 94.4 µM (inactive)
GI50 (K562): 3.45 µM (inactive)
GI50 (MOLT-4): 14.7 µM (inactive)
GI50 (NCI-H23): 30.6 µM (inactive)
GI50 (NCI-H460): 54.7 µM (inactive)
GI50 (OVCAR-5): > 100 µM (inactive)
GI50 (RPMI-8226): 42 µM (inactive)
GI50 (RXF 393): 84.1 µM (inactive)
GI50 (SK-OV-3): 65 µM (inactive)
GI50 (SN12C): 69.2 µM (inactive)
GI50 (SW-620): > 100 µM (inactive)
GI50 (UACC-62): 59.2 µM (inactive)
GI50 (UO-31): 44.4 µM (inactive)

CC(=O)N(CCN1C(=O)c2ccccc2C1=O)CCN1C(=O)c2ccccc2C1=O
GI50 (A549): > 100 µM (inactive)
GI50 (CCRF-CEM): > 100 µM (inactive)
GI50 (COLO 205): > 100 µM (inactive)
GI50 (EKVX): > 100 µM (inactive)
GI50 (HCC 2998): > 100 µM (inactive)
GI50 (HCT-116): > 100 µM (inactive)
GI50 (K562): > 100 µM (inactive)
GI50 (MOLT-4): > 100 µM (inactive)
GI50 (NCI-H23): > 100 µM (inactive)
GI50 (NCI-H460): > 100 µM (inactive)
GI50 (RPMI-8226): > 100 µM (inactive)
GI50 (RXF 393): > 100 µM (inactive)
GI50 (SF-268): > 100 µM (inactive)
GI50 (SK-OV-3): > 100 µM (inactive)
GI50 (SN12C): > 100 µM (inactive)
GI50 (SW-620): > 100 µM (inactive)
GI50 (UACC-62): > 100 µM (inactive)
GI50 (UO-31): > 100 µM (inactive)

COc1c(Cl)cc(S(=O)O)cc1Cl
GI50 (CCRF-CEM): > 100 µM (inactive)
GI50 (EKVX): > 100 µM (inactive)
GI50 (HCC 2998): > 100 µM (inactive)
GI50 (HCT-116): > 100 µM (inactive)
GI50 (HT-29): > 100 µM (inactive)
GI50 (K562): > 100 µM (inactive)
GI50 (MOLT-4): > 100 µM (inactive)
GI50 (NCI-H23): > 100 µM (inactive)
GI50 (NCI-H460): > 100 µM (inactive)
GI50 (OVCAR-5): > 100 µM (inactive)
GI50 (RXF 393): > 100 µM (inactive)
GI50 (SF-268): > 100 µM (inactive)
GI50 (SK-OV-3): > 100 µM (inactive)
GI50 (SN12C): > 100 µM (inactive)
GI50 (UACC-62): > 100 µM (inactive)
GI50 (UO-31): > 100 µM (inactive)

COc1cc(C2c3[nH]c4ccccc4c3[C@@H](Nc3ccc(F)cc3)[C@H]3COC(=O)N23)cc(OC)c1O (some centres not stated)
GI50 (A549): 0.465 µM (active)
GI50 (CCRF-CEM): 0.296 µM (active)
GI50 (EKVX): 2.55 µM (inactive)
GI50 (HCC 2998): 1.58 µM (inactive)
GI50 (HCT-116): 1.89 µM (inactive)
GI50 (HT-29): 3.12 µM (inactive)
GI50 (K562): 1.45 µM (inactive)
GI50 (MOLT-4): 0.287 µM (active)
GI50 (NCI-H23): 1.42 µM (inactive)
GI50 (NCI-H460): 0.957 µM (active)
GI50 (OVCAR-5): 1.79 µM (inactive)
GI50 (SF-268): 1.55 µM (inactive)
GI50 (SK-OV-3): 1.1 µM (active)
GI50 (SN12C): 1.35 µM (inactive)
GI50 (SW-620): 1.23 µM (inactive)
GI50 (UACC-62): 1.37 µM (inactive)
GI50 (UO-31): 1.09 µM (active)

COc1ccc([I+]c2ccc(OC)cc2)cc1
GI50 (A549): 1.87 µM (inactive)
GI50 (CCRF-CEM): 74.5 µM (inactive)
GI50 (COLO 205): 60.5 µM (inactive)
GI50 (EKVX): > 75 µM (inactive)
GI50 (HCC 2998): > 100 µM (inactive)
GI50 (HT-29): 39 µM (inactive)
GI50 (K562): 21.1 µM (inactive)
GI50 (MOLT-4): > 100 µM (inactive)
GI50 (NCI-H23): 13 µM (inactive)
GI50 (NCI-H460): 4.47 µM (inactive)
GI50 (OVCAR-5): > 100 µM (inactive)
GI50 (RPMI-8226): 44.1 µM (inactive)
GI50 (RXF 393): > 100 µM (inactive)
GI50 (SF-268): > 84.5 µM (inactive)
GI50 (SK-OV-3): > 100 µM (inactive)
GI50 (SN12C): 40.8 µM (inactive)
GI50 (SW-620): > 91.8 µM (inactive)
GI50 (UACC-62): > 100 µM (inactive)
GI50 (UO-31): > 100 µM (inactive)
